# Data: US20240360139A1, “BLOOD BRAIN BARRIER PENETRATING SELECTIVE INHIBITORS OF ROCK2 PROTEIN KINASES AND USES THEREOF” (GENOSCO Inc., priority 2023, published 2024)
# Assays:
# [1] = biological target: T1, Recombinant ROCK2 (amino acids 5-554) (Homo sapiens, UniProt O75116); assay: ROCK inhibition assay, LANCE Ultra TR-FRET (ROCK2); type: biochemical; settings: 1 mM of ATP
# T1 construct: ROCK2 (amino acids 5-554)
# Protocol: (§1) Kinase IC50 was determined through an in vitro assay based on LANCE Ultra TR-FRET (Time-Resolved Fluorescence Resonance Energy Transfer) homogeneous technologies method 5 (Perkin Elmer). Recombinant ROCK1 (amino acids 1-477) and ROCK2 (amino acids 5-554) proteins were purchased from Carna Biosciences and SignalChem. Compound activities were measured by Envision and IC50s were calculated. The assays were performed in white LUMITRAC™ 200 96 well half-area microplates from Greiner Bio-One. The kinase reaction buffer consisted of 50 mM HEPES pH 7.5, 1 mM EGTA, 10 mM MgCl2, 2 mM DTT and 0.01% 10 Tween-20. Kinases were incubated with 50 nM (ULight-CREBtide) substrate in the presence of 1 mM (ROCK1) or 1 mM (ROCK2) of ATP. The kinase reaction was carried out for 1 hour before addition of a stopping buffer to a final of 10 mM EDTA and 0.6 nM of LANCE Ultra Europium anti-phospho-CREB (Ser133) antibody (PerkinElmer TRF0200) in LANCE detection buffer. All assay incubations were performed at room temperature, and the microplates were sealed with polyester film during that time. The reaction was incubated for 1 hour, and the signal was read in Envision in TR-FRET mode (excitation at 320 nm and emission at 615/665 nm).
# (§2) As used herein, a way to describe potency of inhibitory activity (nM) is a value of inhibitory activity at 50% (IC50).
# [2] = biological target: T2, Recombinant ROCK1 (amino acids 1-477) (Homo sapiens, UniProt Q13464); assay: ROCK inhibition assay, LANCE Ultra TR-FRET (ROCK1); type: biochemical; settings: 1 mM of ATP
# T2 construct: Recombinant ROCK1 (amino acids 1-477)
# T2 sequence (Q13464 1-477): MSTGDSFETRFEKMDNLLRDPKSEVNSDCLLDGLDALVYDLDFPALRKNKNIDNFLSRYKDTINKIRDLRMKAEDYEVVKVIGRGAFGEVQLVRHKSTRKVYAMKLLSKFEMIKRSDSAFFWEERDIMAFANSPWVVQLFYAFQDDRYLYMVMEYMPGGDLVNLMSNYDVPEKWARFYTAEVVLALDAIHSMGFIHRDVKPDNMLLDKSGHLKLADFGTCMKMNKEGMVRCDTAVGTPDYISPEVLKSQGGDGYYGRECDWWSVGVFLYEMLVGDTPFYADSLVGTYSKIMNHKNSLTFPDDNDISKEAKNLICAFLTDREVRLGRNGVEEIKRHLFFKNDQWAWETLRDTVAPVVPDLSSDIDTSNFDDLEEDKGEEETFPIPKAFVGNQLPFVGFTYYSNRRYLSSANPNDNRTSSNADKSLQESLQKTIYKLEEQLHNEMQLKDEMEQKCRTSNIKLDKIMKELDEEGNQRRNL
# Protocol: as §1, §2
# T1 sequence (O75116 5-554): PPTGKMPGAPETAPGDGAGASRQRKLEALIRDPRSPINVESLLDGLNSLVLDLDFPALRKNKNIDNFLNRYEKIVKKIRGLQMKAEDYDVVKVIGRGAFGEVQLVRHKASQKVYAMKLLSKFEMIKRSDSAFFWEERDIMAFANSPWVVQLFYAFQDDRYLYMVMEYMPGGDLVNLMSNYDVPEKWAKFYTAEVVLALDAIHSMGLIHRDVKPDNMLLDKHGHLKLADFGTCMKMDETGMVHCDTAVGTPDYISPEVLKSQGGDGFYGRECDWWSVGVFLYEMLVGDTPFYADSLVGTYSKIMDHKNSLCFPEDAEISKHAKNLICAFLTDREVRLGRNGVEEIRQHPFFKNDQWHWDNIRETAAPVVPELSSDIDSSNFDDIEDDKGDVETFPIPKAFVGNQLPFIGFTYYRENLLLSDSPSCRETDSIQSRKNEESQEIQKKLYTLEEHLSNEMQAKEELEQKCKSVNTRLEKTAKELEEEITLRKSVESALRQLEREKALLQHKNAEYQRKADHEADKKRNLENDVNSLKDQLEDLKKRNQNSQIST
SMILES,IC50 [1],IC50 [2]
COc1[nH]ncc1-c1ccc2c(C(=O)C3COc4ccc(Cl)cc4C3)cn(CC3CCN3)c2c1 (stereo not drawn) [Compound 1-32],< 20 nM,> 501 nM
CCN(C)CCn1cc(C(=O)C2COc3ccc(Cl)cc3C2)c2ccc(-c3cn[nH]c3OC)cc21 (stereo not drawn) [Compound 3-11],21 to 200 nM,> 501 nM
O=C(c1cn(C2CNC2)c2cc(-c3c[nH]nc3Cl)ncc12)C1COc2ccc(F)cc2C1 (stereo not drawn) [Compound 1-15],21 to 200 nM,> 501 nM
COc1[nH]ncc1-c1ccc2c(C(=O)C3COc4ccc(Cl)cc4C3)cn(CCN(C)C)c2n1 (stereo not drawn) [Compound 1-8],201 to 500 nM,> 501 nM
COc1ccc2c(c1)CC(C(=O)c1cn(C[C@H]3CCN3C)c3cc(-c4cn[nH]c4Cl)ccc13)CO2 (stereo partly drawn) [Compound 1-50],< 20 nM,> 501 nM
COc1ccc2c(c1)C[C@H](C(=O)c1cn(C[C@H]3CCN3C)c3cc(-c4cn[nH]c4Cl)ccc13)CO2 [Compound 1-51],< 20 nM,> 501 nM
CN1CCCC1Cn1cc(C(=O)C2COc3ccc(Cl)cc3C2)c2ccc(-c3cn[nH]c3Cl)cc21 (stereo not drawn) [Compound 1-20],> 501 nM,> 501 nM
CCN(CC)CCn1cc(C(=O)[C@@H]2COc3ccc(Cl)cc3C2)c2ccc(-c3cn[nH]c3OC)cc21 [Compound 3-14],< 20 nM,> 501 nM
COc1ccc2c(c1)CC(C(=O)c1cn(C[C@@H]3CCN3)c3cc(-c4cn[nH]c4Cl)ccc13)CO2 (stereo partly drawn) [Compound 1-36],< 20 nM,201 to 500 nM
CN(C)CCn1cc(C(=O)C2COc3ccc(Cl)cc3C2)c2cnc(-c3cn[nH]c3F)nc21 (stereo not drawn) [Compound 1-34],201 to 500 nM,> 501 nM
CN1CCCC1Cn1cc(C(=O)C2COc3ccc(Cl)cc3C2)c2ccc(-c3cn[nH]c3F)cc21 (stereo not drawn) [Compound 1-27],201 to 500 nM,201 to 500 nM
CNCCn1cc(C(=O)C2COc3ccc(OC)cc3C2)c2ccc(-c3cn[nH]c3Cl)cc21 (stereo not drawn) [Compound 3-23],< 20 nM,> 501 nM
C[C@@H](N)Cn1cc(C(=O)C2COc3ccc(Cl)cc3C2)c2ccc(-c3c[nH]nc3Cl)cc21 (stereo partly drawn) [Compound 2-5],< 20 nM,21 to 200 nM
CCN(CC)CCn1cc(C(=O)C2COc3ccc(Cl)cc3C2)c2ccc(-c3cn[nH]c3Cl)cc21 (stereo not drawn) [Compound 3-12],21 to 200 nM,> 501 nM
CCN(CC)CCn1cc(C(=O)[C@@H]2COc3ccc(OC)cc3C2)c2ccc(-c3cn[nH]c3Cl)cc21 [Compound 3-20],< 20 nM,201 to 500 nM
COc1[nH]ncc1-c1ccc2c(C(=O)C3COc4ccc(Cl)cc4C3)cn(C[C@@H]3CCCN3C)c2c1 (stereo partly drawn) [Compound 1-29],21 to 200 nM,201 to 500 nM
CC(N)Cn1cc(C(=O)C2COc3ccc(F)cc3C2)c2cnc(-c3c[nH]nc3Cl)cc21 (stereo not drawn) [Compound 2-2],< 20 nM,21 to 200 nM
CCN(C)CCn1cc(C(=O)C2COc3ccc(Cl)cc3C2)c2ccc(-c3cn[nH]c3Cl)cc21 (stereo not drawn) [Compound 3-10],21 to 200 nM,> 501 nM
COc1[nH]ncc1-c1ccc2c(C(=O)C3COc4ccc(Cl)cc4C3)cn(C[C@@H](C)N(C)C)c2c1 (stereo partly drawn) [Compound 2-14],< 20 nM,201 to 500 nM
COc1ccc2c(c1)C[C@H](C(=O)c1cn(C[C@@H]3CCN3C)c3cc(-c4cn[nH]c4Cl)ncc13)CO2 [Compound 1-4],< 20 nM,> 501 nM
CNCCn1cc(C(=O)C2COc3ccc(F)cc3C2)c2cnc(-c3c[nH]nc3Cl)cc21 (stereo not drawn) [Compound 3-2],21 to 200 nM,> 501 nM
C[C@H](Cn1cc(C(=O)C2COc3ccc(Cl)cc3C2)c2ccc(-c3cn[nH]c3F)cc21)N(C)C (stereo partly drawn) [Compound 2-16],< 20 nM,> 501 nM
C[C@H](Cn1cc(C(=O)C2COc3ccc(Cl)cc3C2)c2ccc(-c3cn[nH]c3Cl)cc21)N(C)C (stereo partly drawn) [Compound 2-15],< 20 nM,201 to 500 nM
COc1ccc2c(c1)CC(C(=O)c1cn(C[C@@H]3CCN3)c3cc(-c4cn[nH]c4F)ccc13)CO2 (stereo partly drawn) [Compound 1-37],< 20 nM,> 501 nM
COc1ccc2c(c1)CC(C(=O)c1cn(C[C@H]3CCN3C)c3cc(-c4cn[nH]c4OC)ccc13)CO2 (stereo partly drawn) [Compound 1-49],21 to 200 nM,> 501 nM
COc1ccc2c(c1)CC(C(=O)c1cn(C[C@@H]3CCN3C)c3cc(-c4cn[nH]c4Cl)ccc13)CO2 (stereo partly drawn) [Compound 1-46],21 to 200 nM,> 501 nM
COc1n[nH]cc1-c1ccc2c(C(=O)C3COc4ccc(F)cc4C3)cn(CCCN(C)C)c2c1 (stereo not drawn) [Compound 3-6],21 to 200 nM,> 501 nM
"O=C(c1cn(CCN2CCC2)c2nc(-c3c[nH]nc3Cl)ccc12)C1COc2ccc(F)cc2C1 (stereo not drawn) [Compound 3-1, [1-[2-(azetidin-1-yl)ethyl]-6-(3-chloro-1H-pyrazol-4-yl)pyrrolo[2,3-b]pyridin-3-yl]-(6-fluorochroman-3-yl)methanone]",< 20 nM,> 501 nM
O=C(c1cn(CC2CCN2)c2cc(-c3cn[nH]c3F)ccc12)C1COc2ccc(Cl)cc2C1 (stereo not drawn) [Compound 1-30],< 20 nM,> 501 nM
CN(C)CCn1cc(C(=O)C2COc3ccc(Cl)cc3C2)c2ccc(-c3cn[nH]c3F)cc21 (stereo not drawn) [Compound 1-24],21 to 200 nM,> 501 nM

# Now from value to compound:
IC50 [1],IC50 [2],SMILES
< 20 nM,201 to 500 nM,CN(C)CCn1nc(C(=O)C2COc3ccc(F)cc3C2)c2ccc(-c3c[nH]nc3F)cc21 (stereo not drawn) [Compound 5-55]
< 20 nM,201 to 500 nM,COc1ccc2c(c1)C[C@H](C(=O)c1cn(C[C@H]3CCN3CC(F)F)c3cc(-c4c[nH]nc4Cl)ccc13)CO2 [Compound 5-10]
< 20 nM,< 20 nM,"COc1[nH]ncc1-c1ccc2c(C(=O)C3COc4ccc(Cl)cc4C3)cn(CC3(N)CC3)c2c1 (stereo not drawn) [Compound 4-1, [1-[(1-aminocyclopropyl)methyl]-6-(5-methoxy-1H-pyrazol-4-yl)indol-3-yl]-(6-chlorochroman-3-yl)methanone]"
< 20 nM,> 501 nM,CN(C)CCn1nc(C(=O)C2COc3ccc(Cl)cc3C2)c2ccc(-c3c[nH]nc3F)cc21 (stereo not drawn) [Compound 5-48]
201 to 500 nM,> 501 nM,"Cc1n[nH]cc1-c1ccc2c(C(=O)C3COc4ccc(Cl)cc4C3)cn(CCN(C)C)c2c1 (stereo not drawn) [Compound 5-1, (6-chlorochroman-3-yl)-[1-[2-(dimethylamino)ethyl]-6-(3-methyl-1H-pyrazol-4-yl)indol-3-yl]methanone]"
< 20 nM,201 to 500 nM,CCN(CCn1cc(C(=O)[C@@H]2COc3ccc(OC)cc3C2)c2ccc(-c3c[nH]nc3Cl)cc21)CC(F)F [Compound 5-13]
201 to 500 nM,> 501 nM,COc1[nH]ncc1-c1ccc2c(C(=O)[C@H]3COc4ccc(F)cc4C3)cn(CCN(C)C)c2c1 [Compound 5-40]
21 to 200 nM,21 to 200 nM,COc1ccc2c(c1)C[C@H](C(=O)c1cn(C[C@H]3CCN3CC(F)(F)F)c3cc(-c4c[nH]nc4Cl)ccc13)CO2 [Compound 5-11]
201 to 500 nM,> 501 nM,CN(C)CCn1cc(C(=O)C2COc3ccc(F)cc3O2)c2ccc(-c3c[nH]nc3Cl)cc21 (stereo not drawn) [Compound 5-16]
< 20 nM,201 to 500 nM,CN(C)CCn1cc(C(=O)[C@@H]2COc3ccc(Cl)cc3C2)c2ccc(-c3cn[nH]c3Cl)cc21 [Compound 5-36]
< 20 nM,201 to 500 nM,CN(C)CCn1nc(C(=O)C2COc3ccc(F)cc3C2)c2ccc(-c3c[nH]nc3Cl)cc21 (stereo not drawn) [Compound 5-52]
21 to 200 nM,> 501 nM,COc1ccc2c(c1)C[C@H](C(=O)c1cn(CCN(CCF)CCF)c3cc(-c4c[nH]nc4Cl)ccc13)CO2 [Compound 5-15]
< 20 nM,< 20 nM,NC1(Cn2cc(C(=O)C3COc4ccc(Cl)cc4C3)c3ccc(-c4cn[nH]c4Cl)cc32)CC1 (stereo not drawn) [Compound 4-2]
21 to 200 nM,> 501 nM,CN(C)CCn1nc(C(=O)C2COc3ccccc3O2)c2ccc(-c3cn[nH]c3)cc21 (stereo not drawn) [Compound 5-43]
< 20 nM,201 to 500 nM,CN1CC[C@H]1Cn1nc(C(=O)[C@@H]2COc3ccc(F)cc3C2)c2ccc(-c3c[nH]nc3F)cc21 [Compound 5-57]
< 20 nM,201 to 500 nM,CN(C)CCn1nc(C(=O)[C@@H]2COc3ccc(F)cc3C2)c2ccc(-c3c[nH]nc3Cl)cc21 [Compound 5-53]
< 20 nM,201 to 500 nM,CN(C)CCn1cc(C(=O)[C@@H]2COc3ccc(F)cc3C2)c2ccc(-c3c[nH]nc3Cl)cc21 [Compound 5-21]
> 501 nM,> 501 nM,CN(C)CCn1cc(C(=O)C2COc3ccc(Cl)cc3C2)c2ccc(-c3ccnn3C)cc21 (stereo not drawn) [Compound 5-24]
21 to 200 nM,> 501 nM,COc1n[nH]cc1-c1ccc2c(C(=O)[C@H]3COc4ccc(Cl)cc4C3)nn(CCN(C)C)c2c1 [Compound 5-47]
21 to 200 nM,> 501 nM,CCN(CCn1cc(C(=O)[C@@H]2COc3ccc(OC)cc3C2)c2ccc(-c3c[nH]nc3Cl)cc21)CC(F)(F)F [Compound 5-14]
> 501 nM,> 501 nM,COc1n[nH]cc1-c1ccc2c(C(=O)C3CCOc4ccc(F)cc4C3)nn(CCN(C)C)c2c1 (stereo not drawn) [Compound 5-62]
